For test [1], the target named is T1, neuronal-type nicotinic receptors (Bos taurus, UniProt Q07263+Q8SPU6).
T1 construct: monolayer cultures of bovine adrenal chromaffin cells; endogenous in cells; host or cells: bovine adrenal chromaffin cells (primary monolayer cultures)
In kind it is cell-based, Bovine.

Test [2] concerns the target T1, neuronal-type nicotinic receptors. As to conditions: cited from earlier work.

“And” between values parts separate entries of the source, which are not always exact repeats. Equal entries are not always repeated. Positions of bridges follow the written chain, without caps; N, C: chain ends. Non-standard residues stand in square brackets, D forms with d. Residues, ends and D or L forms follow the SMILES beside them. ξ: configuration not given here. Ala(indol-2-yl) = N[C@@H](Cc1cc2ccccc2[nH]1)C(=O)O; AllylGly = C=CC[C@H](N)C(=O)O; ξP = O=C(O)C1CCCN1

T1 sequence (Q07263 22-495): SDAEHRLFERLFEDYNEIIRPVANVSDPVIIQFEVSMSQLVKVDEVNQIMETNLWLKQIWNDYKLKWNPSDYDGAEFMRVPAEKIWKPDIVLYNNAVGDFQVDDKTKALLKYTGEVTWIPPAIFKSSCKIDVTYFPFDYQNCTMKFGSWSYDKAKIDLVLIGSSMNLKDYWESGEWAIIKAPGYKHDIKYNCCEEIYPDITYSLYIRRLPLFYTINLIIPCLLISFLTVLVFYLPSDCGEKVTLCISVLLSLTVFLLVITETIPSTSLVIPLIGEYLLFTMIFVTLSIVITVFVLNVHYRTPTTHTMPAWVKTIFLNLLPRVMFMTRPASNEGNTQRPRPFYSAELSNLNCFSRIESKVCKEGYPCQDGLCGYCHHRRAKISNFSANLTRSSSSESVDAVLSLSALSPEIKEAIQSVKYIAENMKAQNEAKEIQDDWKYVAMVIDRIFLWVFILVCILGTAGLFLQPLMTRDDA
T1 sequence (Q8SPU6 20-496): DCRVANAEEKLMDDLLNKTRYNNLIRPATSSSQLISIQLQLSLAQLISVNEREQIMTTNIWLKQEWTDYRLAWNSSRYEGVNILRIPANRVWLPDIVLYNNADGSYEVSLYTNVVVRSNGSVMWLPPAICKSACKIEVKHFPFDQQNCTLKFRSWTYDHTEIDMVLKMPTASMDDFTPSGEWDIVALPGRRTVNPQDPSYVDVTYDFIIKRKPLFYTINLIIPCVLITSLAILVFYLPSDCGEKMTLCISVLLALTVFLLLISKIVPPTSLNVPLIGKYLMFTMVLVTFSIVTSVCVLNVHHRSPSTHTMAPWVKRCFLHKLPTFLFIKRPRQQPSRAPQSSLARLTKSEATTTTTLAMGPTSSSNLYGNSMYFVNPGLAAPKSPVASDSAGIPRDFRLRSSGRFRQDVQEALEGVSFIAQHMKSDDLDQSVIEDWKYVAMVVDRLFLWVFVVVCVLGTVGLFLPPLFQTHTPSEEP

On to `C[C@@H]1NC(=O)[C@@H]2CCCC[C@H](NC(=O)CN)C(=O)N[C@@H](CSSC[C@@H](C(N)=O)NC(=O)[C@H](CCCNC(=N)N)NC(=O)[C@H](Cc3cc4ccccc4[nH]3)NC1=O)C(=O)N[C@@H](CO)C(=O)N[C@@H](CC(=O)O)C(=O)N1CCCC1C(=O)N[C@@H](CCCNC(=N)N)C(=O)N2` (stereo partly drawn) [compound 118, [2,8]-Dicarba-[3,12]-Cystino Conotoxin ImI: NH2-Gly-c[Hag-Cys-Ser-Asp-Pro-Arg-Hag]-Ala-Trp-Arg-Cys)-NH2], for which, in test [1], the “Adrenaline Release, 1st-4th (individual wells)” value was 2.94% and 4.40% and 4.46% and 4.09% and 2.55% and 3.63% and 2.62% and 3.31%; the “Adrenaline Release, % control” value was 88.260% and 65.306%; the “Adrenaline Release, mean” value is 3.97% and 3.03%; the “Noradrenaline Release, 1st-4th (individual wells)” value was 4.52% and 6.29% and 7.00% and 7.34% and 4.19% and 5.86% and 4.32% and 5.51%. For the same compound, in test [1], the “Noradrenaline Release, % control” value is 90.859% and 69.384%; the “Noradrenaline Release, mean” value is 6.29% and 4.97%.

On to `C[C@@H]1NC(=O)[C@@H]2CSSC[C@H](NC(=O)CN)C(=O)N[C@@H](CSSC[C@@H](C(N)=O)NC(=O)[C@H](CCCNC(=N)N)NC(=O)[C@H](Cc3cc4ccccc4[nH]3)NC1=O)C(=O)N[C@@H](CO)C(=O)N[C@@H](CC(=O)O)C(=O)N1CCCC1C(=O)N[C@@H](CCCNC(=N)N)C(=O)N2` (stereo partly drawn) [native-Ctx ImI] (H-GCCSD[ξP]RCA[Ala(indol-2-yl)]RC-NH2; disulfide 2-8, 3-12), for which the “effect on nicotine-stimulated release of adrenaline and noradrenaline” value in test [2] is recorded as “inhibit”.

As for `C[C@@H]1NC(=O)[C@@H]2CSSC[C@H](NC(=O)CN)C(=O)N[C@@H](CC=CC[C@@H](C(N)=O)NC(=O)[C@H](CCCNC(=N)N)NC(=O)[C@H](Cc3cc4ccccc4[nH]3)NC1=O)C(=O)N[C@@H](CO)C(=O)N[C@@H](CC(=O)O)C(=O)N1CCCC1C(=O)N[C@@H](CCCNC(=N)N)C(=O)N2` (stereo partly drawn) [compound 119, [2,8]-Cystino-[3,12]-Dicarba Conotoxin ImI: NH2-Gly-Cys-c [Hag-Ser-Asp-Pro-Arg-Cys-Ala-Trp-Arg-Hag]-NH2] (H-GC[AllylGly]SD[ξP]RCA[Ala(indol-2-yl)]R[AllylGly]-NH2; disulfide 2-8; staple 3-12), in test [1], the “Adrenaline Release, 1st-4th (individual wells)” value was 3.31% and 3.67% and 4.14% and 3.98% and 2.32% and 2.95% and 2.76% and 3.02%; the “Adrenaline Release, % control” value is 83.420% and 58.888%; the “Adrenaline Release, mean” value is 3.77% and 2.76%; the “Noradrenaline Release, 1st-4th (individual wells)” value is 4.89% and 5.75% and 5.73% (2×) and 3.22% and 4.58% and 3.99% and 4.81%. Also, in test [1], the “Noradrenaline Release, % control” value was 78.400% and 55.971%; the “Noradrenaline Release, % inhibition” value is 21.600%; the “Noradrenaline Release, mean” value is 5.52% and 4.15%; the “noradrenaline released, basal release (0.72%) subtracted” value came to 3.43%.

The values above are taken from patent publication US8362204B2 (priority 2006, dated 2013).
